ChEMBL document CHEMBL3882241, “Compounds inhibiting the binding of sap for treating osteoarthritis” (2006)

Target: Serum amyloid P-component (Homo sapiens) (UniProt P02743)
Test: Inhibition of calcium dependent [125I]serum amyloid P-component (unknown origin) binding to immobilized Neisseria meningitidis at 2 mM incubated for 2 hrs by fluorescence/electron microscopy relative to control

Chain of Serum amyloid P-component (Homo sapiens) (P02743 whole entry): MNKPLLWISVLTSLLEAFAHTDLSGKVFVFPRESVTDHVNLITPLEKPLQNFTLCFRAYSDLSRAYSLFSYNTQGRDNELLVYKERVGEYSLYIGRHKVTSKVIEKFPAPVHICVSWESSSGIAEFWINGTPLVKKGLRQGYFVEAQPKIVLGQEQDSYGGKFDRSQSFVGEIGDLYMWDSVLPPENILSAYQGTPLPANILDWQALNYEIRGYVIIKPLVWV

| Structure (SMILES) | inhibition [%] |
| --- | --- |
| O=C(O)[C@H]1CCCN1C(=O)CCCCC(=O)N1CCC[C@@H]1C(=O)O | 100 |
| Cc1c(OCC(=O)N2CCC[C@@H]2C(=O)O)cccc1OCC(=O)N1CCC[C@@H]1C(=O)O | 100 |
| COc1cccc(OCC(=O)N2CCC[C@@H]2C(=O)O)c1OCC(=O)N1CCC[C@@H]1C(=O)O | 100 |
| C[N+](C)(C)CCOP(=O)([O-])O | 24 |

Target: Serum amyloid P-component (Homo sapiens) (UniProt P02743)
Test: Inhibition of calcium dependent [125I]serum amyloid P-component (unknown origin) binding to immobilized Neisseria meningitidis at 200 uM incubated for 2 hrs by fluorescence/electron microscopy relative to control

| Structure (SMILES) | inhibition [%] |
| --- | --- |
| O=C(O)[C@H]1CCCN1C(=O)CCCCC(=O)N1CCC[C@@H]1C(=O)O | 79 |
| Cc1c(OCC(=O)N2CCC[C@@H]2C(=O)O)cccc1OCC(=O)N1CCC[C@@H]1C(=O)O | 100 |
| COc1cccc(OCC(=O)N2CCC[C@@H]2C(=O)O)c1OCC(=O)N1CCC[C@@H]1C(=O)O | 93 |
| C[N+](C)(C)CCOP(=O)([O-])O | 3 |

Target: Serum amyloid P-component (Homo sapiens) (UniProt P02743)
Test: Inhibition of calcium dependent [125I]serum amyloid P-component (unknown origin) binding to immobilized Neisseria meningitidis at 20 uM incubated for 2 hrs by fluorescence/electron microscopy relative to control

| Structure (SMILES) | inhibition [%] |
| --- | --- |
| O=C(O)[C@H]1CCCN1C(=O)CCCCC(=O)N1CCC[C@@H]1C(=O)O | 74 |
| Cc1c(OCC(=O)N2CCC[C@@H]2C(=O)O)cccc1OCC(=O)N1CCC[C@@H]1C(=O)O | 93 |
| COc1cccc(OCC(=O)N2CCC[C@@H]2C(=O)O)c1OCC(=O)N1CCC[C@@H]1C(=O)O | 92 |
| C[N+](C)(C)CCOP(=O)([O-])O | 4 |

Target: Serum amyloid P-component (Homo sapiens) (UniProt P02743)
Test: Inhibition of calcium dependent [125I]serum amyloid P-component (unknown origin) binding to immobilized Neisseria meningitidis at 2 uM incubated for 2 hrs by fluorescence/electron microscopy relative to control

| Structure (SMILES) | inhibition [%] |
| --- | --- |
| O=C(O)[C@H]1CCCN1C(=O)CCCCC(=O)N1CCC[C@@H]1C(=O)O | 61 |
| Cc1c(OCC(=O)N2CCC[C@@H]2C(=O)O)cccc1OCC(=O)N1CCC[C@@H]1C(=O)O | 64 |
| COc1cccc(OCC(=O)N2CCC[C@@H]2C(=O)O)c1OCC(=O)N1CCC[C@@H]1C(=O)O | 74 |
| C[N+](C)(C)CCOP(=O)([O-])O | 5 |

Target: Serum amyloid P-component (Homo sapiens) (UniProt P02743)
Test: Inhibition of calcium dependent [125I]serum amyloid P-component (unknown origin) binding to immobilized Neisseria meningitidis at 200 nM incubated for 2 hrs by fluorescence/electron microscopy relative to control

| Structure (SMILES) | inhibition [%] |
| --- | --- |
| O=C(O)[C@H]1CCCN1C(=O)CCCCC(=O)N1CCC[C@@H]1C(=O)O | 5 |
| Cc1c(OCC(=O)N2CCC[C@@H]2C(=O)O)cccc1OCC(=O)N1CCC[C@@H]1C(=O)O | 1 |
| COc1cccc(OCC(=O)N2CCC[C@@H]2C(=O)O)c1OCC(=O)N1CCC[C@@H]1C(=O)O | 19 |
| C[N+](C)(C)CCOP(=O)([O-])O | 0 |

Target: Serum amyloid P-component (Homo sapiens) (UniProt P02743)
Test: Inhibition of calcium dependent [125I]serum amyloid P-component (unknown origin) binding to immobilized chicken erythrocyte native long chromatin at 2 mM incubated for 2 hrs by gamma counting relative to control

| Structure (SMILES) | inhibition [%] |
| --- | --- |
| O=C(O)[C@H]1CCCN1C(=O)CCCCC(=O)N1CCC[C@@H]1C(=O)O | 93 |
| Cc1c(OCC(=O)N2CCC[C@@H]2C(=O)O)cccc1OCC(=O)N1CCC[C@@H]1C(=O)O | 98 |
| COc1cccc(OCC(=O)N2CCC[C@@H]2C(=O)O)c1OCC(=O)N1CCC[C@@H]1C(=O)O | 100 |
| C[N+](C)(C)CCOP(=O)([O-])O | 19 |

Target: Serum amyloid P-component (Homo sapiens) (UniProt P02743)
Test: Inhibition of calcium dependent [125I]serum amyloid P-component (unknown origin) binding to immobilized chicken erythrocyte native long chromatin at 200 uM incubated for 2 hrs by gamma counting relative to control

| Structure (SMILES) | inhibition [%] |
| --- | --- |
| O=C(O)[C@H]1CCCN1C(=O)CCCCC(=O)N1CCC[C@@H]1C(=O)O | 87 |
| Cc1c(OCC(=O)N2CCC[C@@H]2C(=O)O)cccc1OCC(=O)N1CCC[C@@H]1C(=O)O | 95 |
| COc1cccc(OCC(=O)N2CCC[C@@H]2C(=O)O)c1OCC(=O)N1CCC[C@@H]1C(=O)O | 96 |
| C[N+](C)(C)CCOP(=O)([O-])O | 3 |

Target: Serum amyloid P-component (Homo sapiens) (UniProt P02743)
Test: Inhibition of calcium dependent [125I]serum amyloid P-component (unknown origin) binding to immobilized chicken erythrocyte native long chromatin at 20 uM incubated for 2 hrs by gamma counting relative to control

| Structure (SMILES) | inhibition [%] |
| --- | --- |
| O=C(O)[C@H]1CCCN1C(=O)CCCCC(=O)N1CCC[C@@H]1C(=O)O | 69 |
| Cc1c(OCC(=O)N2CCC[C@@H]2C(=O)O)cccc1OCC(=O)N1CCC[C@@H]1C(=O)O | 65 |
| COc1cccc(OCC(=O)N2CCC[C@@H]2C(=O)O)c1OCC(=O)N1CCC[C@@H]1C(=O)O | 75 |
| C[N+](C)(C)CCOP(=O)([O-])O | 0 |

Target: Serum amyloid P-component (Homo sapiens) (UniProt P02743)
Test: Inhibition of calcium dependent [125I]serum amyloid P-component (unknown origin) binding to immobilized chicken erythrocyte native long chromatin at 2 uM incubated for 2 hrs by gamma counting relative to control

| Structure (SMILES) | inhibition [%] |
| --- | --- |
| O=C(O)[C@H]1CCCN1C(=O)CCCCC(=O)N1CCC[C@@H]1C(=O)O | 29 |
| Cc1c(OCC(=O)N2CCC[C@@H]2C(=O)O)cccc1OCC(=O)N1CCC[C@@H]1C(=O)O | 22 |
| C[N+](C)(C)CCOP(=O)([O-])O | 0 |

Target: Serum amyloid P-component (Homo sapiens) (UniProt P02743)
Test: Inhibition of calcium dependent [125I]serum amyloid P-component (unknown origin) binding to immobilized chicken erythrocyte native long chromatin at 200 nM incubated for 2 hrs by gamma counting relative to control

| Structure (SMILES) | inhibition [%] |
| --- | --- |
| O=C(O)[C@H]1CCCN1C(=O)CCCCC(=O)N1CCC[C@@H]1C(=O)O | 1 |
| Cc1c(OCC(=O)N2CCC[C@@H]2C(=O)O)cccc1OCC(=O)N1CCC[C@@H]1C(=O)O | 0 |
| COc1cccc(OCC(=O)N2CCC[C@@H]2C(=O)O)c1OCC(=O)N1CCC[C@@H]1C(=O)O | 11 |
| C[N+](C)(C)CCOP(=O)([O-])O | 2 |

Target: Serum amyloid P-component (Homo sapiens) (UniProt P02743)
Test: Inhibition of calcium dependent [125I]serum amyloid P-component (unknown origin) binding to immobilized influenza virus A/Shanghai/24/90 at 2 mM incubated for 2 hrs by fluorescence/electron microscopy relative to control

| Structure (SMILES) | inhibition [%] |
| --- | --- |
| O=C(O)[C@H]1CCCN1C(=O)CCCCC(=O)N1CCC[C@@H]1C(=O)O | 98 |
| Cc1c(OCC(=O)N2CCC[C@@H]2C(=O)O)cccc1OCC(=O)N1CCC[C@@H]1C(=O)O | 85 |
| COc1cccc(OCC(=O)N2CCC[C@@H]2C(=O)O)c1OCC(=O)N1CCC[C@@H]1C(=O)O | 89 |
| C[N+](C)(C)CCOP(=O)([O-])O | 3 |

Target: Serum amyloid P-component (Homo sapiens) (UniProt P02743)
Test: Inhibition of calcium dependent [125I]serum amyloid P-component (unknown origin) binding to immobilized influenza virus A/Shanghai/24/90 at 200 uM incubated for 2 hrs by fluorescence/electron microscopy relative to control

| Structure (SMILES) | inhibition [%] |
| --- | --- |
| O=C(O)[C@H]1CCCN1C(=O)CCCCC(=O)N1CCC[C@@H]1C(=O)O | 96 |
| Cc1c(OCC(=O)N2CCC[C@@H]2C(=O)O)cccc1OCC(=O)N1CCC[C@@H]1C(=O)O | 81 |
| COc1cccc(OCC(=O)N2CCC[C@@H]2C(=O)O)c1OCC(=O)N1CCC[C@@H]1C(=O)O | 77 |
| C[N+](C)(C)CCOP(=O)([O-])O | 5 |

Target: Serum amyloid P-component (Homo sapiens) (UniProt P02743)
Test: Inhibition of calcium dependent [125I]serum amyloid P-component (unknown origin) binding to immobilized influenza virus A/Shanghai/24/90 at 20 uM incubated for 2 hrs by fluorescence/electron microscopy relative to control

| Structure (SMILES) | inhibition [%] |
| --- | --- |
| O=C(O)[C@H]1CCCN1C(=O)CCCCC(=O)N1CCC[C@@H]1C(=O)O | 90 |
| Cc1c(OCC(=O)N2CCC[C@@H]2C(=O)O)cccc1OCC(=O)N1CCC[C@@H]1C(=O)O | 81 |
| COc1cccc(OCC(=O)N2CCC[C@@H]2C(=O)O)c1OCC(=O)N1CCC[C@@H]1C(=O)O | 62 |
| C[N+](C)(C)CCOP(=O)([O-])O | 5 |

Target: Serum amyloid P-component (Homo sapiens) (UniProt P02743)
Test: Inhibition of calcium dependent [125I]serum amyloid P-component (unknown origin) binding to immobilized influenza virus A/Shanghai/24/90 at 2 uM incubated for 2 hrs by fluorescence/electron microscopy relative to control

| Structure (SMILES) | inhibition [%] |
| --- | --- |
| O=C(O)[C@H]1CCCN1C(=O)CCCCC(=O)N1CCC[C@@H]1C(=O)O | 81 |
| Cc1c(OCC(=O)N2CCC[C@@H]2C(=O)O)cccc1OCC(=O)N1CCC[C@@H]1C(=O)O | 65 |
| COc1cccc(OCC(=O)N2CCC[C@@H]2C(=O)O)c1OCC(=O)N1CCC[C@@H]1C(=O)O | 52 |
| C[N+](C)(C)CCOP(=O)([O-])O | 2 |

Target: Serum amyloid P-component (Homo sapiens) (UniProt P02743)
Test: Inhibition of calcium dependent [125I]serum amyloid P-component (unknown origin) binding to immobilized influenza virus A/Shanghai/24/90 at 200 nM incubated for 2 hrs by fluorescence/electron microscopy relative to control

| Structure (SMILES) | inhibition [%] |
| --- | --- |
| O=C(O)[C@H]1CCCN1C(=O)CCCCC(=O)N1CCC[C@@H]1C(=O)O | 36 |
| Cc1c(OCC(=O)N2CCC[C@@H]2C(=O)O)cccc1OCC(=O)N1CCC[C@@H]1C(=O)O | 24 |
| COc1cccc(OCC(=O)N2CCC[C@@H]2C(=O)O)c1OCC(=O)N1CCC[C@@H]1C(=O)O | 16 |
| C[N+](C)(C)CCOP(=O)([O-])O | 0 |

System: Homo sapiens
Test: Reduction of serum amyloid P-component in amyloidosis patient at 10 mg, sc bid for 3 months
Assay type: functional

| Structure (SMILES) | inhibition (INH) [%] |
| --- | --- |
| O=C(O)[C@H]1CCCN1C(=O)CCCCC(=O)N1CCC[C@@H]1C(=O)O | 95 |

System: Homo sapiens
Test: Reduction of serum amyloid P-component in amyloidosis patient at 15 mg, sc bid for 2 months
Assay type: functional

| Structure (SMILES) | inhibition (INH) [%] |
| --- | --- |
| O=C(O)[C@H]1CCCN1C(=O)CCCCC(=O)N1CCC[C@@H]1C(=O)O | 95 |
